Measured values taken from patent publication US20220017433A1 (UNIVERSITÄT ZÜRICH, priority 2018, published 2022).

Experiment: Water solubility of the chelating compounds
Format: physicochemical
Details: aqueous stock solution, pH lowered with HCl

- pH below which the compound starts to precipitate slowly: ~9
Substance: Desferrioxamine-p-arylazide [DFO-ArN3]
